Data set [1] is described as follows: Supercritical fluid chromatography (SFC) retention, exposed polarity. Type of data set: physicochemical. The settings on record: Chirex 3014 column, reflects exposure of polar groups. The text has this: Conditions for analytical supercritical fluid chromatography (SFC) were taken from previous publications (Goetz et al. [2014a], [b]). The Pirkle chiral stationary phase Chirex 3014, a silica bonded (S)-valine and (R)-1-(α-naphthyl)ethylamine with a urea linkage, was selected. A mobile phase of 15% methanol in supercritical CO2 enabled adequate separation in combination with a low-slope gradient. High retention times were mitigated by increasing the percentage of methanol in the eluent and the addition of the relatively weak salt pair ammonium formate. In the resulting chromatographic system, differences in retention depend upon hydrophobic interactions, the ability for hydrogen bonding, the presence of dipoles, and van der Waals interactions of the solutes with the stationary phase (Goetz et al. [2014a], [b]).
Next, we applied SFC-analysis to compare calculations related to polar surface area with experimentally derived data. […] Thus, calibrated SFC retention times can be compared to the SAPSA values obtained from molecular dynamics. […] As a result, shielding of polar atoms under SFC conditions is realized most optimally in the Abu derivative (4) leading to a short retention time of 2.7 min. […] However, in this case the best permeability was attributed to the Phe analogue. […] However, most likely in the case of peptide (5), for which the MDCK assay is not aligned with PAMPA and SFC, the low predictability for oral uptake would have excluded this candidate from an in vivo experiment. Taking into account the in vitro profiling, it seems possible to identify cyclic peptides with good permeability and solubility.

The conditions of data set [2]: plasma.
Method: (§1) The values relate to single experiments. […] This has been estimated by looking at independent replicates across the assay dynamic range.
(§2) In order to make predictions of pharmacokinetic properties of these cyclic peptides, further in vitro evaluation was carried out to determine plasma-protein binding (PPB) and metabolic stability in mouse liver microsomes (MLM). […] In order to predict clearance in vivo, evaluation in vitro was assessed in MLM.
For data set [3] the following is noted: mouse.
Method: (§3) For mouse PK on peptides (4) and (5), blood concentrations versus time profiles were obtained from 2 groups of 3 male C57Bl/6 mice. In the intravenous PK group (n = 3), the compound was administered intravenous (i.v.) by bolus injection (5 mL/kg) at a dose of 1 mg/kg, solubilized in N-Methyl-2-pyrrolidone (10%) and blank plasma (90%). For oral PK, another group of 3 male C57Bl/6 mice, a dose of 3 mg/kg was orally applied (dosing volume of 10 mL/kg) as a homogenous suspension of water (99%), Tween80 (0.5%) and methylcellulose (0.5%).
(§4) For both rodents, blood samples (10–50 µL) were collected at 0.08 (i.v. only), 0.25, 0.5, 1, 2, 4, 7, and 24 h after dosing. […] Analyses of parent compound concentrations were carried out in blood using LC-MS/MS. An aliquot of 30 μL was taken and added to 200 μL MeCN (including Glyburide (c = 50 ng/mL) as internal standard) for protein precipitation. Sample analysis was performed on a LC–MS/MS system consisting of an AB SCIEX API 5500 QTrap mass spectrometer equipped with a TurboIonSpray™ interface (Framingham, USA). The MS system was connected to a HTS CTC PAL auto-sampler (Zwingen, Switzerland) and to a Flux Rheos 2200 pump system (Reinach, Switzerland). The supernatants (2 µL) were injected directly onto the LC-MS/MS system for analysis. The test articles and its internal standard were separated with a Phenomenex Kinetex C18 (50 × 2 mm ID, 2.7 µm pore size). A binary gradient with a mobile phase consisting of water (A) and acetonitrile (B) was used for the LC-separation. Both mobile phases (A) and (B) were acidified with 0.1% formic acid. The elution gradient program was as follows: [time (min), (% mobile phase B): (0, 95) (5.8, 85) (5.81, 99) (6.5, 99) (6.51, 95) (8, 95)]. The column temperature was maintained at 50 °C using a column heater. Under these experimental conditions, the LLOQ was 0.4 ng/mL.
The nature of the next data set: physchem. The conditions noted are these: pH 6.8, thermodynamic from solid.
Data set [4] is described as follows: in vitro. The conditions noted are these: mouse, microsomes.
Method: as §1, §2
The conditions of data set [5]: in vivo, cited from earlier work; for CL Mouse / Vss: iv, 2.1 mg/kg; for Vss / Tmax / T1/2term: mouse; for Tmax: po, 7.1 mg/kg.
The conditions of data set [6]: mouse, microsomes.
Method: as §1, §2
The conditions of data set [7]: mouse, in vivo; for Vd / clearance: iv, 1 mg/kg; for Tmax: po.
Method: as §3, §4
The nature of another data set: in vivo. The conditions noted are these: male, po.
Data set [8] can be described thus: in vitro. The conditions noted are these: dog, MDCK.
Method: (§5) The values relate to single experiments. For the MDCK assay, the lower limit of quantification (LLOQ) was 5 nM, and for PAMPA 2 nM, respectively. […] This has been estimated by looking at independent replicates across the assay dynamic range.
The conditions of data set [9]: rat, in vivo, 3 mg/kg; for clearance: iv; for AUC: po.
Method: (§6) For rat PK, blood concentration versus time profiles were obtained from 3 male Sprague Dawley rats. For intravenous PK, the compound was administered intravenously by bolus injection (0.5 mL/kg) at a dose of 3 mg/kg, solubilized in N-Methyl-2-pyrrolidone (30%) and PEG200 (70%). For oral PK, after a washout period of 48 h, an oral gavage was administered to the same animals at a dose of 3 mg/kg at a dosing volume of 2.5 mL/kg. The oral dose was dispersed in water (99%), Tween80 (0.5%) and methylcellulose (0.5%), forming a homogenous suspension. For both rodents, blood samples (10–50 µL) were collected at 0.08 (i.v. only), 0.25, 0.5, 1, 2, 4, 7, and 24 h after dosing. To investigate the absorption and the impact of pre-systemic metabolism, the model of portal vein cannulation in rats was applied for compounds orally dosed in a cassette. The week before the PK experiments, the rats were surgically prepared with catheter implantation into the right jugular vein (for collection of blood from the systemic circulation) and the hepatic portal vein (for collection of blood from the portal vein, i.e. after intestinal absorption and metabolism and before liver pe-systemic metabolism). After recovery, the rats were orally dosed by gavage (same dose, volume and formulation as described above), and blood samples (50 µL) were collected at 0.25, 0.5, 1, 2, 4, 7, and 24 h concomitantly from the 2 blood vessels. Analyses of parent compound concentrations were carried out in blood using LC-MS/MS. An aliquot of 30 μL was taken and added to 200 μL MeCN (including Glyburide (c = 50 ng/mL) as internal standard) for protein precipitation. Sample analysis was performed on a LC–MS/MS system consisting of an AB SCIEX API 5500 QTrap mass spectrometer equipped with a TurboIonSpray™ interface (Framingham, USA). The MS system was connected to a HTS CTC PAL auto-sampler (Zwingen, Switzerland) and to a Flux Rheos 2200 pump system (Reinach, Switzerland). The supernatants (2 µL) were injected directly onto the LC-MS/MS system for analysis. The test articles and its internal standard were separated with a Phenomenex Kinetex C18 (50 × 2 mm ID, 2.7 µm pore size). A binary gradient with a mobile phase consisting of water (A) and acetonitrile (B) was used for the LC-separation. Both mobile phases (A) and (B) were acidified with 0.1% formic acid. The elution gradient program was as follows: [time (min), (% mobile phase B): (0, 95) (5.8, 85) (5.81, 99) (6.5, 99) (6.51, 95) (8, 95)]. The column temperature was maintained at 50 °C using a column heater. Under these experimental conditions, the LLOQ was 0.4 ng/mL.
(§7) Accordingly, we decided to conduct a hepatic portal vein (H.P.V.) study in Sprague Dawley rats due to the technical difficulties associated with a smaller species like mice. Rats were equipped with double jugular vein and hepatic portal vein cannulation. A standard jugular vein cannulation experiment was run in parallel as a control.
For data set [10] the following is noted: rat, in vivo, po, 3 mg/kg.
Method: as §6, §7

Values after ≈ are worked out from the molar mass of the structure shown. Read-outs that look alike come from different tables or passages of the source. Where a SMILES comes first, the peptide text is derived from it. [ ]: non-standard residue; d: D form. NMeY = CN[C@@H](Cc1ccc(O)cc1)C(=O)O; NMeL = CN[C@@H](CC(C)C)C(=O)O; dNMeL = CN[C@H](CC(C)C)C(=O)O; Abu = CC[C@H](N)C(=O)O

Broadly, the fraction unbound is free concentration divided by total concentration. A low value points to little free substance. In general, thermodynamic solubility refers to the concentration in solution at equilibrium with solid. By microsomal CLint is commonly meant a measure of how fast metabolising enzymes remove a compound, apart from limits set by blood flow. For orientation: Vss means the apparent volume that relates the amount in the body to the concentration in plasma or blood. The term Tmax denotes the time at which the peak concentration occurs. What is called half-life is the time in which the quantity being followed falls by half. A high value points to slow loss. The Vd is a proportionality between amount in the body and measured concentration, not a real space. In general, clearance refers to the rate of elimination divided by the concentration. One may read the bioavailability as the share of a dose that reaches the circulation, judged against a reference dose that is usually intravenous. Higher therefore signals good availability. As a reminder, the Papp is a coefficient for how fast a substance crosses the barrier. Read a low Papp as poor permeation. Usually AUC stands for concentration integrated over time. A high value points to more exposure.

Method for in vivo: as §3, §4
Method for physchem: as §5

In the case of `CC(C)C[C@@H]1NC(=O)[C@H](Cc2ccc(O)cc2)NC(=O)[C@H]2CCCN2C(=O)[C@H](CC(C)C)NC(=O)[C@H](CC(C)C)NC(=O)[C@@H](CC(C)C)NC1=O` [(1), [Tyr-Leu-D-Leu-Leu-Leu-D-Pro-]] (cyclo(LL[dP]YL[dL])), the SFC in data set [1] is given as 4.8 min. Further, the fraction unbound in data set [2] is 0.08. Besides, the “class for in vivo CL in mice” value in data set [3] is given as “high CL”. In addition, in “physchem”, the solubility (thermodynamic) turned out to be 151 µM (≈ 108 µg/mL). This compound also showed a microsomal CLint in the data set “in vitro [4]” of 95 µL/min/mg. Further, in data set [5], the “CL Mouse” value was 82 ± 15 mL/min/kg, the Vss was 0.8 ± 0.2 L/kg, the Tmax is 36 ± 18 min and the T1/2term was 12 ± 0 min.

As to `CC(C)C[C@@H]1NC(=O)[C@H](Cc2ccc(O)cc2)N(C)C(=O)[C@H]2CCCN2C(=O)[C@H](CC(C)C)NC(=O)[C@H](CC(C)C)N(C)C(=O)[C@@H](CC(C)C)N(C)C1=O` [(2), [NMe-Tyr-Leu-NMe-D-Leu-NMe-Leu-Leu-D-Pro]] (cyclo(L[dNMeL][NMeL]L[dP][NMeY])), in data set [1], the SFC came to 4.1 min. The compound further had a fraction unbound in data set [2] below 0.01. For the same compound, in [6], the “clearance in the MLM assay (in words)” value is reported as “medium clearance”. Further, in [3], the “class for in vivo CL in mice” value was “low CL”. In the data set “physchem”, this compound displayed a thermodynamic solubility of 26 µM (≈ 19.6 µg/mL). In addition, the microsomal CLint in the data set “in vitro [4]” was 63 µL/min/mg. Also, in [5], the “CL Mouse” value is 1 ± 0 mL/min/kg, the Vss was 0.4 ± 0.0 L/kg, the Tmax was 228 ± 186 min and the T1/2term was 1360 ± 324 min.

With `CC(C)C[C@@H]1NC(=O)[C@H](Cc2ccccc2)NC(=O)[C@H]2CCCN2C(=O)[C@H](CC(C)C)NC(=O)[C@H](CC(C)C)N(C)C(=O)[C@@H](CC(C)C)N(C)C1=O` [(3), [Phe-Leu-NMe-D-Leu-NMe-Leu-Leu-D-Pro]] (cyclo(FL[dNMeL][NMeL]L[dP])), the “Log PAMPA” value is −4.0. Moreover, in data set [1], the SFC was 2.9 min. The fraction unbound in [2] is below 0.01. Besides, in [7], the half-life was 330 ± 24 min, the Vd is 0.6 ± 0.1 L/kg and the clearance turned out to be 2 mL/min/kg. For the same compound, the Tmax in data set [7] (7.5 mg/kg) turned out to be 18 ± 6 min. Moreover, the “clearance in the MLM assay (in words)” value in data set [6] is “very high CL”. In [3], the “class for in vivo CL in mice” value was “low CL”. For the same compound, the bioavailability in the data set “in vivo” (OF1, mouse) is 7 ± 2%. Besides, the thermodynamic solubility in “physchem” was 30 µM (≈ 21.7 µg/mL). In the data set “in vitro [8]”, this compound showed a Papp of 11.6 ×10⁻⁶ cm/s. Further, the microsomal CLint in the data set “in vitro [4]” is 488 µL/min/mg.

On to `CC[C@@H]1NC(=O)[C@H]2CCCN2C(=O)[C@H](CC(C)C)NC(=O)[C@H](CC(C)C)N(C)C(=O)[C@@H](CC(C)C)N(C)C(=O)[C@H](CC(C)C)NC1=O` [(4), [Abu-Leu-NMe-D-Leu-NMe-Leu-Leu-D-Pro]] (cyclo([Abu]L[dNMeL][NMeL]L[dP])), for which the “Log PAMPA” value is given as −4.3. The SFC in data set [1] came to 2.7 min. The fraction unbound in data set [2] is below 0.01. In data set [7], this compound had a half-life of 48 ± 12 min, a Vd of 2.1 ± 0.2 L/kg and a clearance of 49 ± 14 mL/min/kg. The Tmax in [7] (3 mg/kg) came out at 18 min. The compound also had a clearance in data set [9] of 41 mL/min/kg. Besides, the AUC in data set [9] (Jugular vein (AuC)) is 1.66 µM·h. The compound also had an AUC in [9] (Portal vein (AuC)) of 1.84 µM·h. In [6], the “clearance in the MLM assay (in words)” value was “very high CL”. Further, in data set [3], the “class for in vivo CL in mice” value was “medium CL”. Moreover, the “Liver first pass effect” value in [10] is 11%. In the data set “in vivo” (C57BL/6, mouse), this compound came in with a bioavailability of 39 ± 4%. Besides, the solubility (thermodynamic) in “physchem” came out at 602 µM (≈ 399 µg/mL). The same compound registered an apparent permeability (Papp) in “in vitro [8]” of 4 ×10⁻⁶ cm/s. In the data set “in vitro [4]”, this compound gave a microsomal CLint of 324 µL/min/mg.

`CC(C)C[C@@H]1NC(=O)[C@H](C)NC(=O)[C@H]2CCCN2C(=O)[C@H](CC(C)C)NC(=O)[C@H](CC(C)C)N(C)C(=O)[C@@H](CC(C)C)N(C)C1=O` [(5), [Ala-Leu-NMe-D-Leu-NMe-Leu-Leu-D-Pro]] (cyclo(AL[dNMeL][NMeL]L[dP])): the “Log PAMPA” value is listed as −4.6. For the same compound, the SFC in [1] is listed as 2.8 min. This compound also had a fraction unbound in data set [2] below 0.01. Also, in [7], the half-life was 24 ± 6 min, the Vd came out at 2.8 ± 0.3 L/kg and the clearance came to 105 ± 26 mL/min/kg. In addition, the Tmax in [7] (3 mg/kg) was 18 min. The compound further displayed a clearance in [9] of 70 mL/min/kg. Besides, the AUC in [9] (Jugular vein (AuC)) is 0.104 µM·h. Also, the AUC in data set [9] (Portal vein (AuC)) is 0.449 µM·h. The “clearance in the MLM assay (in words)” value in [6] is on record as “very high CL”. Also, in data set [3], the “class for in vivo CL in mice” value is “high CL”. In data set [10], the “Liver first pass effect” value is given as 77%. Further, the bioavailability in the data set “in vivo” (C57BL/6, mouse) is 23 ± 4%. In addition, the solubility (thermodynamic) in “physchem” was above 1000 µM. Further, the Papp in “in vitro [8]” is 2.7 ×10⁻⁶ cm/s. The compound further came in with a microsomal CLint in the data set “in vitro [4]” of 654 µL/min/mg.

The values are drawn from article PMC5838147, “Modulation of Oral Bioavailability and Metabolism for Closely Related Cyclic Hexapeptides” (International Journal of Peptide Research and Therapeutics, 2017).
